From ChEMBL document CHEMBL3352398, “2-(2-Bromophenyl)-formononetin and 2-heptyl-formononetin are PPARγ partial agonists and reduce lipid accumulation in 3T3-L1 adipocytes” (Bioorg Med Chem, 2014)
Values belong to the compound of their own block, whether it stands above or below them. The source made the active and inactive calls. The rule behind the calls is not given here.

Tests used:
3T3-L1 [1] = assay: Activation of AMPK in mouse 3T3L1 cells assessed as AMPK phosphorylation at 500 uM after 5 hrs by Western blotting analysis; format: cell-based
3T3-L1 [2] = assay: Reduction of adipogenesis in mouse 3T3L1 cells assessed as decrease in lipid accumulation measured on day 8 by fluorescence-based AdipoRed assay; format: functional, cell-based
3T3-L1 [3] = assay: Reduction of adipogenesis in mouse 3T3L1 cells assessed as decrease in lipid accumulation measured on day 8 by oil red o assay; format: functional, cell-based
[4] = Cytotoxicity against mouse 3T3L1 cells assessed as effect on lactate dehydrogenase release at 5 to 50 uM measured on day 2; format: cell-based; settings: 3t3-l1, 50 µM
[5] = Cytotoxicity against mouse 3T3L1 cells assessed as effect on lactate dehydrogenase release at 5 to 50 uM measured on day 8; format: cell-based; settings: 3t3-l1, 50 µM
3T3-L1 [6] = assay: Effect on adipogenesis in mouse 3T3L1 cells in DI media assessed as increase in lipid accumulation at <25 uM after 8 days by fluorescence-based AdipoRed assay; format: functional, cell-based
3T3-L1 [7] = assay: Effect on adipogenesis in mouse 3T3L1 cells in DI media assessed as increase in fat-laden mature adipocytes at <25 uM after 8 days by oil red o assay; format: functional, cell-based
3T3-L1 [8] = assay: Effect on adipogenesis in mouse 3T3L1 cells in DI media assessed as reduction in lipid accumulation at 50 uM measured on day 8 by fluorescence-based AdipoRed assay; format: functional, cell-based
3T3-L1 [9] = assay: Effect on adipogenesis in mouse 3T3L1 cells in DI media assessed as reduction in fat-laden mature adipocytes at 50 uM after 8 days by oil red o assay; format: functional, cell-based
3T3-L1 [10] = assay: Reduction in triglyceride release in mouse 3T3L1 cells at 50 uM after 48 hrs by fluorescence-based AdipoRed assay; format: functional, cell-based
3T3-L1 [11] = assay: Reduction in triglyceride release in mouse 3T3L1 cells at 50 uM after 48 hrs by oil red o assay; format: functional, cell-based
[12] = Cytotoxicity against mouse 3T3L1 cells assessed as LDH release at 50 uM after 48 hrs; format: cell-based; settings: 3t3-l1, 48 h
3T3-L1 [13] = assay: Effect on lipolysis in mouse 3T3L1 cells assessed as reduction in glycerol level at 5 to 50 uM after 48 hrs by UV-Vis spectrophotometry; format: functional, cell-based
3T3-L1 [14] = assay: Reduction in lipogenesis in mouse 3T3L1 cells assessed as down regulation of Scd1 gene exression by real time-qPCR analysis; format: functional, cell-based
3T3-L1 [15] = assay: Induction of lipolysis in mouse 3T3L1 cells assessed as up-regulation of Acox1 gene exression by real time-qPCR analysis; format: functional, cell-based
[16] = biological target: T1, Peroxisome proliferator-activated receptor gamma (Homo sapiens) (UniProt P37231); assay: Competitive binding to human GST-tagged PPAR-gamma at <=100 uM by TR-FRET assay
T1 sequence (whole entry): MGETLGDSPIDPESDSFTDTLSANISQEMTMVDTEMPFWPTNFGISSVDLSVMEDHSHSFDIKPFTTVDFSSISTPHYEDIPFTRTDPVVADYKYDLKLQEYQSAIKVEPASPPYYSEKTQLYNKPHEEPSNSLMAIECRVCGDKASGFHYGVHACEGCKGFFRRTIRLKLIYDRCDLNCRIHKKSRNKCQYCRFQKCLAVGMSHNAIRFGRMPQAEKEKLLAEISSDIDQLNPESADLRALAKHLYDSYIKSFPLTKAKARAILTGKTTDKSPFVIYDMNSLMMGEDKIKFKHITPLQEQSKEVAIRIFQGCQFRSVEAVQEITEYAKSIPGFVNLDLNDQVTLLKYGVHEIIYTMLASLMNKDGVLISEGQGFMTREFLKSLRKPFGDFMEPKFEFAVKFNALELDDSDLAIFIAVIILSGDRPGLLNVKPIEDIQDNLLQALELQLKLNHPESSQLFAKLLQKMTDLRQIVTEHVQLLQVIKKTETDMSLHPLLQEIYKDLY

[17] = biological target: T2, Peroxisome proliferator-activated receptor gamma (Mus musculus) (UniProt P37238); assay: Agonist activity at PPAR-gamma in mouse embryo fibroblast at 5 to 50 uM by transactivation assay relative to rosiglitazone
T2 sequence (whole entry): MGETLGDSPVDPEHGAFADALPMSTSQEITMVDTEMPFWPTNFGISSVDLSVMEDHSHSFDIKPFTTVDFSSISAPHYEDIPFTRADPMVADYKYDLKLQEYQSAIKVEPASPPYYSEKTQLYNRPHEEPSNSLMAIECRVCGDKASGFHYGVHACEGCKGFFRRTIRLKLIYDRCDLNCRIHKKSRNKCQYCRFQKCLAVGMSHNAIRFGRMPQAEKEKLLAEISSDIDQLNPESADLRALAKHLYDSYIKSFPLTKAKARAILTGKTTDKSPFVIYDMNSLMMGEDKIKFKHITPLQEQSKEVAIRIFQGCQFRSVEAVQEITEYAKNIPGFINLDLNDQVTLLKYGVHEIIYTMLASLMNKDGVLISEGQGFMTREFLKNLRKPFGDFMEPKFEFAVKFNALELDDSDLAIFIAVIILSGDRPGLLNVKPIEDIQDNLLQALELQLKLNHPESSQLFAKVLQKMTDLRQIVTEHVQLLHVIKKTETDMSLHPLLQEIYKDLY

[18] = biological target: T2, Peroxisome proliferator-activated receptor gamma (Mus musculus); assay: Agonist activity at PPAR-gamma in mouse embryo fibroblast by transactivation assay relative to rosiglitazone
[19] = biological target: T3, Peroxisome proliferator-activated receptor alpha (Homo sapiens) (UniProt Q07869); assay: Agonist activity at PPAR-alpha (unknown origin) by transactivation assay
T3 sequence (whole entry): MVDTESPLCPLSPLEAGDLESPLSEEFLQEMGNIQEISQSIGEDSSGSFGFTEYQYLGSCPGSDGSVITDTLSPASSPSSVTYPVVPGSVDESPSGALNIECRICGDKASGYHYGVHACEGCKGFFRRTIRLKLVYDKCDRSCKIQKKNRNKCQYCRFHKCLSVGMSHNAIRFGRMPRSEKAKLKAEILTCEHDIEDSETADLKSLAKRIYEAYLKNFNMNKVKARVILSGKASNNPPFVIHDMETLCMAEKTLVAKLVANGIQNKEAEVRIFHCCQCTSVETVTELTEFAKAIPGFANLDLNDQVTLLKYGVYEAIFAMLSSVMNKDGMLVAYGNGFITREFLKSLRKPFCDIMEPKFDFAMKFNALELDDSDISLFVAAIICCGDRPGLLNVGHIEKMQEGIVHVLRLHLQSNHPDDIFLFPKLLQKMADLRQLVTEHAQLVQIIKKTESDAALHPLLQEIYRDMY

[20] = biological target: T4, Peroxisome proliferator-activated receptor delta (Homo sapiens) (UniProt Q03181); assay: Agonist activity at PPAR-delta (unknown origin) by transactivation assay
T4 sequence (whole entry): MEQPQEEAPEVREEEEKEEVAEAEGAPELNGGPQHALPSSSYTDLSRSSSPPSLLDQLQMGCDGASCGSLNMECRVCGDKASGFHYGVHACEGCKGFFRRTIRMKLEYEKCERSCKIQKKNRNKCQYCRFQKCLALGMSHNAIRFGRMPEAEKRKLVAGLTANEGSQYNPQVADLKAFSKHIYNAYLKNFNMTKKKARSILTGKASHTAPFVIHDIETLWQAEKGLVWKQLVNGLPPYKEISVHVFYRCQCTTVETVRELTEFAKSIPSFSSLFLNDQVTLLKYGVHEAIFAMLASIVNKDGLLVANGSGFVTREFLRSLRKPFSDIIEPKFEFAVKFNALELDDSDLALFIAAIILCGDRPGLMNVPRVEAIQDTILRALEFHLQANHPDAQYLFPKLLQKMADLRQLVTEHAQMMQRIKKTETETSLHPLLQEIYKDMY

3T3-L1 [21] = assay: Activation of AMPK in mouse 3T3L1 cells assessed as AMPK phosphorylation at 50 uM after 5 to 48 hrs by Western blotting analysis; format: cell-based
[22] = Effect on adipogenesis in mature mouse 3T3L1 cells assessed as upregulation of Sirt1 gene expression; format: functional, cell-based; settings: 3T3-L1
[23] = biological target: Peroxisome proliferator-activated receptor gamma (Mus musculus) (UniProt P37238); assay: Partial agonist activity at PPAR-gamma in mouse embryo fibroblast assessed as reduction in activation by transactivation assay in presence of rosiglitazone
3T3-L1 [24] = assay: Effect on adipogenesis in mouse 3T3L1 cells assessed as increase in lipid accumulation at 5 to 50 uM measured on day 8 by fluorescence-based AdipoRed assay; format: functional, cell-based
3T3-L1 [25] = assay: Effect on adipogenesis in mouse 3T3L1 cells assessed as increase in lipid accumulation at 5 to 50 uM measured on day 8 by oil red o assay; format: functional, cell-based
3T3-L1 [26] = assay: Effect on adipogenesis in mouse 3T3L1 cells assessed as reduction in Pparg gene expression at 5 to 50 uM after 8 days by real time quantitative PCR analysis relative to vehicle-treated control; format: functional, cell-based
3T3-L1 [27] = assay: Effect on adipogenesis in mouse 3T3L1 cells assessed as reduction in Cebpa gene expression at 5 to 50 uM after 8 days by real time quantitative PCR analysis relative to vehicle-treated control; format: functional, cell-based
3T3-L1 [28] = assay: Effect on adipogenesis in mouse 3T3L1 cells assessed as increase in Srebf1 gene expression at 5 to 50 uM after 8 days by real time quantitative PCR analysis relative to vehicle-treated control; format: functional, cell-based
3T3-L1 [29] = assay: Effect on adipogenesis in mouse 3T3L1 cells assessed as reduction in Fabp4 gene expression at 5 to 50 uM after 8 days by real time quantitative PCR analysis relative to vehicle-treated control; format: functional, cell-based
3T3-L1 [30] = assay: Effect on adipogenesis in mouse 3T3L1 cells assessed as reduction in Adipoq gene expression at 5 to 50 uM after 8 days by real time quantitative PCR analysis relative to vehicle-treated control; format: functional, cell-based
3T3-L1 [31] = assay: Effect on adipogenesis in mouse 3T3L1 cells assessed as reduction in Pparg gene expression at 5 to 50 uM after 4 days by real time quantitative PCR analysis relative to vehicle-treated control; format: functional, cell-based
3T3-L1 [32] = assay: Effect on adipogenesis in mouse 3T3L1 cells assessed as reduction in Cebpa gene expression at 5 to 50 uM after 4 days by real time quantitative PCR analysis relative to vehicle-treated control; format: functional, cell-based
3T3-L1 [33] = assay: Effect on adipogenesis in mouse 3T3L1 cells assessed as reduction in Srebf1 gene expression at 5 to 50 uM after 4 days by real time quantitative PCR analysis relative to vehicle-treated control; format: functional, cell-based
3T3-L1 [34] = assay: Effect on adipogenesis in mouse 3T3L1 cells assessed as reduction in Fabp4 gene expression at 5 to 50 uM after 4 days by real time quantitative PCR analysis relative to vehicle-treated control; format: functional, cell-based
3T3-L1 [35] = assay: Effect on adipogenesis in mouse 3T3L1 cells assessed as reduction in Adipoq gene expression at 5 to 50 uM after 4 days by real time quantitative PCR analysis relative to vehicle-treated control; format: functional, cell-based
3T3-L1 [36] = assay: Effect on adipogenesis in mouse 3T3L1 cells in DI media assessed as increase in lipid accumulation after 8 days by fluorescence-based AdipoRed assay; format: functional, cell-based
3T3-L1 [37] = assay: Effect on adipogenesis in mouse 3T3L1 cells in DI media assessed as increase in fat-laden mature adipocytes after 8 days by oil red o assay; format: functional, cell-based
3T3-L1 [38] = assay: Induction of lipolysis in mouse 3T3L1 cells assessed as up-regulation of Atgl gene exression by real time-qPCR analysis; format: functional, cell-based
[39] = biological target: Peroxisome proliferator-activated receptor gamma (Mus musculus) (UniProt P37238); assay: Partial agonist activity at PPAR-gamma in mouse embryo fibroblast assessed as reduction in activation at 5 to 50 uM by transactivation assay in presence of rosiglitazone
[40] = biological target: T5, Peroxisome proliferator-activated receptor gamma (Homo sapiens, UniProt P37231); assay: Binding affinity to PPAR-gamma (unknown origin)
T5 sequence (P37231 whole entry): T1 sequence (whole entry)

Structure (SMILES): NC(=O)c1ncn([C@@H]2O[C@H](CO)[C@@H](O)[C@H]2O)c1N
Activity (3T3-L1 [1]): Active

Structure (SMILES): COc1ccc(-c2c(-c3ccccc3Br)oc3cc(O)ccc3c2=O)cc1
Activity (3T3-L1 [2]): Dose-dependent effect | Activity (3T3-L1 [3]): Dose-dependent effect | Activity [4]: Non-toxic | Activity [5]: Non-toxic | Activity (3T3-L1 [6]): Active | Activity (3T3-L1 [7]): Active | Activity (3T3-L1 [8]): Active | Activity (3T3-L1 [9]): Active | Activity (3T3-L1 [10]): Active | Activity (3T3-L1 [11]): Active | Activity [12]: Toxic | Activity (3T3-L1 [13]): Active | Activity (3T3-L1 [14]): Active | Activity (3T3-L1 [15]): Active | Activity [16]: Active | Activity [17]: 4% | Activity [18]: Dose-dependent effect | Activity [19]: inactive | Activity [20]: inactive | Activity (3T3-L1 [21]): inactive | Activity [22]: inactive | Activity [23]: Dose-dependent effect

Structure (SMILES): COc1ccc(C(C)C(=O)c2ccc(O)cc2O)cc1 (stereo unspecified)
IC50 [40]: 26 µM

Further lines, with some results ahead:

Activity [16]: inactive | Activity [17]: inactive | Activity [39]: Active
Structure (SMILES): COc1ccc(-c2coc3cc(O)ccc3c2=O)cc1 [FORMONONETIN]
Activity (3T3-L1 [24]): Active | Activity (3T3-L1 [25]): Active | Activity [4]: Non-toxic | Activity [5]: Non-toxic | Activity (3T3-L1 [26]): Active | Activity (3T3-L1 [27]): Active | Activity (3T3-L1 [28]): inactive | Activity (3T3-L1 [29]): Active | Activity (3T3-L1 [30]): Active | Activity (3T3-L1 [31]): Active | Activity (3T3-L1 [32]): Active | Activity (3T3-L1 [33]): inactive | Activity (3T3-L1 [34]): Active | Activity (3T3-L1 [35]): Active | Activity (3T3-L1 [36]): Dose-dependent effect | Activity (3T3-L1 [37]): Dose-dependent effect | Activity (3T3-L1 [10]): inactive | Activity (3T3-L1 [11]): inactive | Activity [12]: Non-toxic | Activity (3T3-L1 [13]): Active | Activity (3T3-L1 [38]): Active | Activity (3T3-L1 [21]): inactive | Activity [22]: inactive

IC50 [40]: 124 µM
Structure (SMILES): COc1ccc(C2COc3cc(O)ccc3C2=O)cc1 (stereo unspecified)
